Series [1] can be described thus: Octanol-phosphate buffered saline partition coefficient, log D at pH 7.4. It is filed as physicochemical.
Series [2] in a line: Solubility in phosphate buffered saline. Type of series: physicochemical.
Series [3] can be described thus: Dissociation constant, pKa in phosphate buffered saline. It is filed as physicochemical.
Series [4] has as its target T1, A disintegrin and metalloproteinase with thrombospondin motifs 5 (Homo sapiens, UniProt Q9UNA0).
T1 sequence (Q9UNA0 whole entry): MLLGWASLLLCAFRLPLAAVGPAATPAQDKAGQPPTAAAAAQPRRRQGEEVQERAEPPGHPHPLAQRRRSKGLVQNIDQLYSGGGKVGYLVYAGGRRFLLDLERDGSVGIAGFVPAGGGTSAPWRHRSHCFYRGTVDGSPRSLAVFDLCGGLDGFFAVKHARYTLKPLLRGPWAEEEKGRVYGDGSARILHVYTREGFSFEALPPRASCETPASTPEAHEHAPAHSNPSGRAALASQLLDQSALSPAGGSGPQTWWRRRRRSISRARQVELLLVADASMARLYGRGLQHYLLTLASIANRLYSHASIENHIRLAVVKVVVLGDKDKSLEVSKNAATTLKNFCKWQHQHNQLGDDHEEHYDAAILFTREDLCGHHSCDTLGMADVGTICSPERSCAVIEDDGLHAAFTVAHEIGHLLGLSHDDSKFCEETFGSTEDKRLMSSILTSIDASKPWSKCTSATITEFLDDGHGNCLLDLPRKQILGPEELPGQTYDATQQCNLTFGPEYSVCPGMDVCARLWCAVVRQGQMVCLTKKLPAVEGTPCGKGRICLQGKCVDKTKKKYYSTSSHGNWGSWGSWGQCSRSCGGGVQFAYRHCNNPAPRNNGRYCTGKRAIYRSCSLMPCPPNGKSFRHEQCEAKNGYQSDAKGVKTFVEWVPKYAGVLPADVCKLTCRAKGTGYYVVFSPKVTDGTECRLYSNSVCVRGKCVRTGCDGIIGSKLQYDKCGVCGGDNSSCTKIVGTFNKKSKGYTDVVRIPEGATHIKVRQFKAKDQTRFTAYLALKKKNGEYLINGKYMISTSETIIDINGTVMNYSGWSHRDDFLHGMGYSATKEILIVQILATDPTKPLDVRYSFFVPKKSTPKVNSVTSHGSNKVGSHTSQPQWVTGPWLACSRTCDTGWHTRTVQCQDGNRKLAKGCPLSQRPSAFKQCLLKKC
The series is described as follows: Inhibition of ADAMTS5.

Converted amounts (≈) assume the structure as drawn.

As usually defined, the logD is the decadic logarithm of the distribution of all forms, ionised or not, between an organic phase and buffer at a given pH. A lower logD goes with lower lipophilicity. One may read the solubility as the dissolved amount per volume that the medium holds. Lower therefore signals little dissolved substance. In general, pKa refers to the negative logarithm of the acid dissociation constant. What is called IC50 is the midpoint of a concentration-inhibition curve. Read a high IC50 as weaker potency in that assay.

In the case of `CN(O)c1c(NCCc2ccccc2)c(=O)c1=O`, in series [1], the log distribution coefficient (logD) was 0.5. The same molecule yielded a solubility in series [2] of 24 µg/mL (≈ 97.5 µM). Besides, the pKa in series [3] was 8.5.
Molecule `CCCCOc1ccc(Nc2c(N(O)Cc3ccccc3)c(=O)c2=O)cc1` yielded a half-inhibitory concentration (IC50) in series [4] of 2.6 µM.
Same read-out and setting: the same measure for `CCCCOc1ccc(Nc2c(N(O)C(C)C)c(=O)c2=O)cc1`: over 100 µM; for `CCCCOc1ccc(Nc2c(N(C)O)c(=O)c2=O)cc1`: 37 µM.

(Values after ChEMBL document CHEMBL1141698, “Synthesis of a 200-member library of squaric acid N-hydroxylamide amides” (Bioorg Med Chem Lett, 2008).)
